Counter-ions that a name gives are not always drawn.
What follows are molecules tested on Acinetobacter baumannii ATCC17961 (assay: Antimicrobial susceptibility testing: 90% growth inhibitory concentration (IC90) determination, Iso-Sensitest broth, OD 600 nm). Conditions: 90% growth inhibitory concentration, Acinetobacter baumannii ATCC17961, Iso-Sensitest broth, OD 600 nm over 16 h; read-out: ATCC 17961 IC90.
Format: cell-based
Outline: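 Growth of bacteria (~5×10^5 CFU/ml, Iso-Sensitest medium, 35±2 °C) was followed by OD at 600 nm at 20-min intervals over 16 h against a 10-point twofold compound series (e.g. 50–0.097 μM final). Concentration giving 90% inhibition in log phase was reported.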

SMILES | IC90 [µM]
CCc1cc(Nc2nccn3c(-c4ccc(OC)cc4C(F)F)cnc23)ccc1C(=O)NCCOCCN [Example 229, N-[2-(2-amino-ethoxy)ethyl]-4-[[3-[2-(difluoro-methyl)-4-methoxy-phenyl]imidazo [1,2-a]pyrazin-8-yl]amino]-2-ethyl-benzamide] | 0.04
COc1ccc(-c2cnc3c(Nc4cc(C)c(C(=O)NCCOCCN(C)C)c(F)c4)nccn23)c(F)c1F [Example 190, 4-[[3-(2,3-difluoro-4-methoxyphenyl)imidazo[1,2-a]pyrazin-8-yl]amino]-N-[2-[2-(dimethylamino)ethoxy]ethyl]-2-fluoro-6-methylbenzamide] | 0.056
CCc1cc(Nc2nccn3c(-c4ccc(OC)cc4CC)cnc23)ccc1C(=O)NCCOCCN [Example 206, N-(2-(2-amino-ethoxy)ethyl)-2-ethyl-4-((3-(2-ethyl-4-methoxyphenyl)imidazo[1,2-a]pyrazin-8-yl)amino)benzamide hydrochloride] | 0.26
CCc1cc(Nc2nccn3c(-c4c(F)cccc4F)cnc23)ccc1C(=O)NCCOCCN [Example 214, N-[2-(2-amino-ethoxy)ethyl]-4-[[3-(2,6-difluorophenyl)imidazo[1,2-a]pyrazin-8-yl]amino]-2-ethyl-benzamide] | 0.95
COc1ccc(-c2cnc3c(Nc4ccc(C(=O)NCCOCCN)c(F)c4)nccn23)c(F)c1F [Example 199, N-(2-(2-amino-ethoxy)ethyl)-4-((3-(2,3-difluoro-4-methoxyphenyl)imidazo[1,2-a]pyrazin-8-yl)amino)-2-fluorobenzamide] | 0.38
C#CCNCCCNC(=O)c1ccc(Nc2nccn3c(-c4ccc(OC)c(F)c4F)cnc23)cc1CC [Example 225, 4-((3-(2,3-difluoro-4-methoxyphenyl)imidazo[1,2-a]pyrazin-8-yl)amino)-2-ethyl-N-(3-(prop-2-yn-1-ylamino)propyl) benzamide] | 0.05
COc1ccc(-c2cnc3c(Nc4cc(C)c(C(=O)NCCOCCN)c(F)c4)nccn23)c(F)c1F [Example 191, N-[2-(2-amino-ethoxy]-4-[[3-(2,3-difluoro-4-methoxyphenyl)imidazo[1,2-a]pyrazin-8-yl]amino]-2-fluoro-6-methyl-benzamide; hydrochloride] | 0.087
CCc1cc(Nc2nccn3c(-c4ccc(O)cc4C(F)(F)F)cnc23)ccc1C(=O)NCCOCCN [Example 182, N-[2-(2-aminoethoxy)ethyl]-2-ethyl-4-[[3-[4-hydroxy-2-(trifluoromethyl)phenyl]imidazo [1,2-a]pyrazin-8-yl]amino] benzamide; hydrochloride] | 0.22
CCc1cc(Nc2nccn3c(-c4cc(Cl)c(OC)cc4F)cnc23)ccc1C(=O)NCCOCCN [Example 220, N-[2-(2-amino-ethoxy)ethyl]-4-[[3-(5-chloro-2-fluoro-4-methoxy-phenyl)imidazo[1,2-a]pyrazin-8-yl]amino]-2-ethyl-benzamide] | 0.08
CCc1cc(Nc2nccn3c(-c4ccc(OC)c(F)c4C(F)(F)F)cnc23)ccc1C(=O)NCCOCCN [Example 231] | 0.06
COc1ccc(-c2cnc3c(Nc4cc(F)c(C(=O)NCCOCCN)c(Br)c4)nccn23)c(F)c1F [Example 217, N-(2-(2-amino-ethoxy)ethyl)-2-bromo-4-((3-(2,3-difluoro-4-methoxyphenyl)imidazo[1,2-a]pyrazin-8-yl)amino)-6-fluorobenzamide dihydrochloride] | 0.1
CCc1cc(Nc2nccn3c(-c4ccc(OC)c(F)c4F)cnc23)cc(F)c1C(=O)NCCOCCN [Example 202, N-(2-(2-amino-ethoxy)ethyl)-4-((3-(2,3-difluoro-4-methoxyphenyl)imidazo[1,2-a]pyrazin-8-yl)amino)-2-ethyl-6-fluorobenzamide dihydrochloride] | 0.2
CCc1cc(Nc2nccn3c(-c4cc(F)c(OC)cc4F)cnc23)ccc1C(=O)NCCOCCN [Example 222, N-[2-(2-amino-ethoxy)ethyl]-4-[[3-(2,5-difluoro-4-methoxy-phenyl)imidazo[1,2-a]pyrazin-8-yl]amino]-2-ethyl-benzamide] | 0.04
CCc1cc(Nc2nccn3c(-c4ccc(OC)c(F)c4F)cnc23)ccc1C(=O)NCCCCCN(C)C [Example 223, 4-((3-(2,3-difluoro-4-methoxyphenyl)imidazo[1,2-a]pyrazin-8-yl)amino)-N-(5-(dimethylamino)pentyl)-2-ethylbenzamide] | 0.03

Results, then the molecule that gave them:

IC90 [µM] | SMILES
1.87 | COc1ccc(-c2cnc3c(Nc4cc(C)c(C(=O)NCCOCCN)c(Cl)c4)nccn23)c(F)c1F [Example 62, N-(2-(2-aminoethoxy)ethyl)-2-chloro-4-((3-(2,3-difluoro-4-methoxyphenyl)imidazo[1,2-a]pyrazin-8-yl)amino)-6-methyl-benzamide]
0.35 | C#CCOc1ccc(-c2cnc3c(Nc4ccc(C(=O)N[C@@H](C)CNCC(N)=O)c(CC)c4)nccn23)c(F)c1F [Example 207, N-[(1S)-2-[(2-amino-2-oxo-ethyl)amino]-1-methyl-ethyl]-4-[[3-(2,3-difluoro-4-prop-2-ynoxy-phenyl)imidazo [1,2-a]pyrazin-8-yl]amino]-2-ethyl-benzamide]
0.16 | CCc1cc(Nc2nccn3c(-c4ccc(OC)c(F)c4F)cnc23)ccc1C(=O)NCCNCC(=O)N1CCN[C@H](CO)C1 [Example 178, 4-[[3-(2,3-difluoro-4-methoxyphenyl)imidazo[1,2-a]pyrazin-8-yl]amino]-2-ethyl-N-[2-[[2-[(3S)-3-(hydroxymethyl)piperazin-1-yl]-2-oxoethyl]amino]ethyl]benzamide]
0.33 | CCc1cc(Nc2nccn3c(-c4cccc(F)c4F)cnc23)ccc1C(=O)NCCOCCN [Example 209, N-[2-(2-amino-ethoxy)ethyl]-4-[[3-(2,3-difluoro-phenyl)imidazo [1,2-a]pyrazin-8-yl]amino]-2-ethyl-benzamide]
0.18 | CCOCCCNC(=O)c1ccc(Nc2nccn3c(-c4ccc(OC)c(F)c4F)cnc23)cc1CC [Example 224, 4-((3-(2,3-difluoro-4-methoxyphenyl)imidazo[1,2-a]pyrazin-8-yl)amino)-N-(3-ethoxypropyl)-2-ethylbenzamide]
0.03 | C#CCNCCCCNC(=O)c1ccc(Nc2nccn3c(-c4ccc(OC)c(F)c4F)cnc23)cc1CC [Example 227, 4-[[3-(2,3-difluoro-4-methoxy-phenyl)imidazo[1,2-a]pyrazin-8-yl]amino]-2-ethyl-N-[4-(prop-2-ynylamino)butyl]benzamide]
0.23 | COc1ccc(-c2cnc3c(Nc4cc(C)c(C(=O)NCCOCCOCCN)c(F)c4)nccn23)c(F)c1F [Example 208, N-(2-(2-(2-aminoethoxy)ethoxy)ethyl)-4-((3-(2,3-difluoro-4-methoxyphenyl)imidazo[1,2-a]pyrazin-8-yl)amino)-2-fluoro-6-methyl-benzamide dihydrochloride]
0.43 | CCc1cc(Nc2nccn3c(-c4ccc(OC)c(F)c4F)cnc23)ccc1C(=O)NCCOCC(=O)N1CCN[C@H](CO)C1 [Example 203, 4-[[3-(2,3-difluoro-4-methoxy-phenyl)imidazo [1,2-a]pyrazin-8-yl]amino]-2-ethyl-N-[2-[2-[(3S)-3-(hydroxymethyl)piperazin-1-yl]-2-oxo-ethoxy]ethyl]benzamide]
0.59 | CCc1cc(Nc2nccn3c(-c4ccc(Oc5ccccn5)c(F)c4F)cnc23)ccc1C(=O)NCCNCC(=O)N1CCN[C@H](CO)C1 [Example 205, 4-[[3-[2,3-difluoro-4-(2-pyridyloxy)phenyl]imidazo [1,2-a]pyrazin-8-yl]amino]-2-ethyl-N-[2-[[2-[(3S)-3-(hydroxymethyl)piperazin-1-yl]-2-oxo-ethyl]amino]ethyl]benzamide]
0.49 | CCc1cc(Nc2nccn3c(-c4ccc(OC)c(F)c4F)cnc23)ccc1C(=O)NCCNCCNCC(=O)O [Example 216, (2-((2-(4-((3-(2,3-difluoro-4-methoxyphenyl)imidazo[1,2-a]pyrazin-8-yl)amino)-2-ethyl-benzamido)ethyl)amino)ethyl) glycine]
0.88 | COc1ccc(-c2cnc3c(Nc4ccc(C(=O)NCCOCCN)c(F)c4F)nccn23)c(F)c1F [Example 63, N-(2-(2-aminoethoxy)ethyl)-4-((3-(2,3-difluoro-4-methoxy-phenyl)imidazo [1,2-a]pyrazin-8-yl)amino)-2,3-difluoro-benzamide]
0.4 | COc1ccc(-c2cnc3c(Nc4cc(C)c(C(=O)NCCOCCN=C(N(C)C)N(C)C)c(F)c4)nccn23)c(F)c1F [Example 212, N-(2-(2-((bis(dimethyl-amino)methylene)amino)ethoxy)ethyl)-4-((3-(2,3-difluoro-4-methoxyphenyl)imidazo[1,2-a]pyrazin-8-yl)amino)-2-fluoro-6-methylbenzamide formate]

Same assay, conditions: Acinetobacter baumannii, ATCC17961, 16 h, read-out: ATCC 17961 IC90

SMILES | IC90 [µM]
COc1ccc(-c2cnc3c(Nc4ccc(C(=O)NCCOCCN)c(C)c4F)nccn23)c(F)c1F [Example 61, dihydrochloride] | 0.14
CCc1cc(Nc2nccn3c(-c4ccc(OC)c(F)c4F)cnc23)ccc1C(=O)NCCOCC(C)(C)N [Example 72, N-[2-(2-amino-2-methyl-propoxy)ethyl]-4-[[3-(2,3-difluoro-4-methoxy-phenyl)imidazo[1,2-a]pyrazin-8-yl]amino]-2-ethyl-benzamide; formic acid] | 0.04
CCc1cc(Nc2nccn3c(-c4ccc(OC)c(F)c4F)cnc23)ccc1C(=O)NCCOCCN(C)CC(=O)NS(C)(=O)=O [Example 66, 4-((3-(2,3-difluoro-4-methoxyphenyl)imidazo[1,2-a]pyrazin-8-yl)amino)-2-ethyl-N-(2-(2-(methyl(2-(methylsulfonamido)-2-oxoethyl)amino)ethoxy)ethyl)benzamide dihydrochloride] | 0.37
CCc1cc(Nc2nccn3c(-c4ccc(OC)cc4C(F)(F)F)cnc23)ccc1C(=O)NCCOCCN [Example 56, N-(2-(2-aminoethoxy)ethyl)-2-ethyl-4-((3-(4-methoxy-2-(trifluoromethyl)phenyl)imidazo[1,2-a]pyrazin-8-yl)amino)benzamide hydrochloride] | 0.08

Reference: US20230017532A1 (Hoffmann-La Roche Inc., priority 2018, published 2023)
